Test results reported in PubChem BioAssay AID1918945 (Molecular Pharmacology Branch, DTP, NCI, 2023).
Where “and” joins values, the source holds several entries; their conditions need not be identical. Equal values may be shown once. Each block holds one compound with its values, some of them ahead of it.

Tested on: 883617-216-R-J1-PDC complex spheroid viability
Test: Anticancer human tumor 883617-216-R-J1-PDC patient-derived bladder carcinoma cell line growth inhibition
Details: for viability, T/C: stronger effect = lower value
Outline: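 Complex spheroids of tumor cells with HUVEC and human MSCs, exposed to iadademstat combined with other agents. Each agent tested in half-log steps from near clinical Cmax (else 10 microM top), DMSO ≤0.25%.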

[1] = curve of first compound, second compound 0.1 µM
[2] = curve of first compound, second compound 0.316 µM
[3] = curve of first compound, second compound 1 µM
[4] = curve of first compound, second compound 3.16 µM
[5] = curve of first compound, second compound 10 µM
[6] = second compound 0.1 µM, first compound 0.00949 µM
[7] = second compound 0.1 µM, first compound 0.03 µM
[8] = second compound 0.1 µM, first compound 0.0949 µM
[9] = second compound 0.1 µM, first compound 0.3 µM
[10] = second compound 0.1 µM, first compound 0.949 µM
[11] = second compound 0.1 µM, first compound 3 µM
[12] = second compound 0.316 µM, first compound 0.00949 µM
[13] = second compound 0.316 µM, first compound 0.03 µM
[14] = second compound 0.316 µM, first compound 0.0949 µM
[15] = second compound 0.316 µM, first compound 0.3 µM
[16] = second compound 0.316 µM, first compound 0.949 µM
[17] = second compound 0.316 µM, first compound 3 µM
[18] = second compound 1 µM, first compound 0.00949 µM
[19] = second compound 1 µM, first compound 0.03 µM
[20] = second compound 1 µM, first compound 0.0949 µM
[21] = second compound 1 µM, first compound 0.3 µM
[22] = second compound 1 µM, first compound 0.949 µM
[23] = second compound 1 µM, first compound 3 µM
[24] = second compound 3.16 µM, first compound 0.00949 µM
[25] = second compound 3.16 µM, first compound 0.03 µM
[26] = second compound 3.16 µM, first compound 0.0949 µM
[27] = second compound 3.16 µM, first compound 0.3 µM
[28] = second compound 3.16 µM, first compound 0.949 µM
[29] = second compound 3.16 µM, first compound 3 µM
[30] = second compound 10 µM, first compound 0.00949 µM
[31] = second compound 10 µM, first compound 0.03 µM
[32] = second compound 10 µM, first compound 0.0949 µM
[33] = second compound 10 µM, first compound 0.3 µM
[34] = second compound 10 µM, first compound 0.949 µM
[35] = second compound 10 µM, first compound 3 µM
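Also: exposure lasted seven days after three days of spheroid growth.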
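For viability, T/C in this document: 100% = DMSO vehicle control luminescence.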

Compound: O=C(C=Cn1cnc(-c2cc(C(F)(F)F)cc(C(F)(F)F)c2)n1)NNc1cnccn1 + NC1CCC(NC2CC2c2ccccc2)CC1
IC50 [1]: 18.8 nM
IC50 [2]: 17.6 nM
IC50 [3]: 11.4 nM
IC50 [4]: 17 nM
IC50 [5]: 20.7 nM
viability, T/C (second compound 0.1 µM, first compound 0.00316 µM): 87.4%
viability, T/C (second compound 0.1 µM, first compound 0.01 µM): 65.9%
viability, T/C (second compound 0.1 µM, first compound 0.0316 µM): 36.3%
viability, T/C (second compound 0.1 µM, first compound 0.1 µM): 32.7%
viability, T/C (second compound 0.1 µM, first compound 0.316 µM): 28.9%
viability, T/C (second compound 0.1 µM, first compound 1 µM): 26.9%
viability, T/C (second compound 0.316 µM, first compound 0.00316 µM): 102%
viability, T/C (second compound 0.316 µM, first compound 0.01 µM): 60.6%
viability, T/C (second compound 0.316 µM, first compound 0.0316 µM): 39%
viability, T/C (second compound 0.316 µM, first compound 0.1 µM): 31.3%
viability, T/C (second compound 0.316 µM, first compound 0.316 µM): 29.7%
viability, T/C (second compound 0.316 µM, first compound 1 µM): 28.1%
viability, T/C (second compound 1 µM, first compound 0.00316 µM): 87.4%
viability, T/C (second compound 1 µM, first compound 0.01 µM): 51%
viability, T/C (second compound 1 µM, first compound 0.0316 µM): 36.5%
viability, T/C (second compound 1 µM, first compound 0.1 µM): 32.7%
viability, T/C (second compound 1 µM, first compound 0.316 µM): 28.1%
viability, T/C (second compound 1 µM, first compound 1 µM): 26.2%
viability, T/C (second compound 3.16 µM, first compound 0.00316 µM): 99.5%
viability, T/C (second compound 3.16 µM, first compound 0.01 µM): 55.4%
viability, T/C (second compound 3.16 µM, first compound 0.0316 µM): 44%
viability, T/C (second compound 3.16 µM, first compound 0.1 µM): 33%
viability, T/C (second compound 3.16 µM, first compound 0.316 µM): 29.6%
viability, T/C (second compound 3.16 µM, first compound 1 µM): 27.2%
viability, T/C (second compound 10 µM, first compound 0.00316 µM): 99.2%
viability, T/C (second compound 10 µM, first compound 0.01 µM): 63.2%
viability, T/C (second compound 10 µM, first compound 0.0316 µM): 40.7%
viability, T/C (second compound 10 µM, first compound 0.1 µM): 36.8%
viability, T/C (second compound 10 µM, first compound 0.316 µM): 31.8%
viability, T/C (second compound 10 µM, first compound 1 µM): 29.5%

Compound: CCN(c1cc(-c2ccc(CN3CCOCC3)cc2)cc(C(=O)NCc2c(C)cc(C)[nH]c2=O)c1C)C1CCOCC1 + NC1CC1c1ccc(-c2cccc(O)c2)cc1
IC50 [1]: > 3000 nM
IC50 [2]: > 3000 nM
IC50 [3]: > 3000 nM
IC50 [4]: > 3000 nM
IC50 [5]: > 3000 nM
viability, T/C [6]: 86.5%
viability, T/C [7]: 84.8%
viability, T/C [8]: 81.9%
viability, T/C [9]: 73.5%
viability, T/C [10]: 79.4%
viability, T/C [11]: 66.9%
viability, T/C [12]: 96.8%
viability, T/C [13]: 92.2%
viability, T/C [14]: 83.4%
viability, T/C [15]: 89.9%
viability, T/C [16]: 86%
viability, T/C [17]: 70%
viability, T/C [18]: 105%
viability, T/C [19]: 93%
viability, T/C [20]: 88.2%
viability, T/C [21]: 91.5%
viability, T/C [22]: 88.6%
viability, T/C [23]: 79.2%
viability, T/C [24]: 99.7%
viability, T/C [25]: 83.3%
viability, T/C [26]: 73.8%
viability, T/C [27]: 83.2%
viability, T/C [28]: 88.6%
viability, T/C [29]: 78.5%
viability, T/C [30]: 78.4%
viability, T/C [31]: 72.9%
viability, T/C [32]: 69.2%
viability, T/C [33]: 63%
viability, T/C [34]: 71.1%
viability, T/C [35]: 61.1%

Compound: CCN(c1cc(-c2ccc(CN3CCOCC3)cc2)cc(C(=O)NCc2c(C)cc(C)[nH]c2=O)c1C)C1CCOCC1 + NC1CCC(NC2CC2c2ccccc2)CC1
IC50 [1]: > 3000 nM
IC50 [2]: > 3000 nM
IC50 [3]: > 3000 nM
IC50 [4]: > 3000 nM
IC50 [5]: > 3000 nM
viability, T/C [6]: 96.4%
viability, T/C [7]: 85%
viability, T/C [8]: 86.9%
viability, T/C [9]: 84.7%
viability, T/C [10]: 90.7%
viability, T/C [11]: 80.8%
viability, T/C [12]: 95.8%
viability, T/C [13]: 98.8%
viability, T/C [14]: 93.1%
viability, T/C [15]: 87.6%
viability, T/C [16]: 89.1%
viability, T/C [17]: 86%
viability, T/C [18]: 90.2%
viability, T/C [19]: 89.5%
viability, T/C [20]: 83.8%
viability, T/C [21]: 88.4%
viability, T/C [22]: 90%
viability, T/C [23]: 86.3%
viability, T/C [24]: 94.5%
viability, T/C [25]: 87.7%
viability, T/C [26]: 88.3%
viability, T/C [27]: 89.9%
viability, T/C [28]: 87.9%
viability, T/C [29]: 93.9%
viability, T/C [30]: 97.8%
viability, T/C [31]: 91.7%
viability, T/C [32]: 90.8%
viability, T/C [33]: 96.2%
viability, T/C [34]: 94.5%
viability, T/C [35]: 92.8%

IC50 (curve of compound): 66.9 nM and 22.3 nM
Compound: COc1cc(Nc2ncc3c(n2)-c2ccc(Cl)cc2C(c2c(F)cccc2OC)=NC3)ccc1C(=O)O
viability, T/C (compound 0.00316 µM): 99.2% and 68.6%
viability, T/C (compound 0.01 µM): 73.5% and 63.5%
viability, T/C (compound 0.0316 µM): 53.3% and 44%
viability, T/C (compound 0.1 µM): 49% and 36.2%
viability, T/C (compound 0.316 µM): 45.1% and 34.5%
viability, T/C (compound 1 µM): 48.5% and 34.6%
